From patent US8361968B2 (Takeda Pharmaceutical Company Limited, priority 2002, dated 2013)
Read-outs that look alike come from different tables or passages of the source. Square brackets hold non-standard residues; d marks the D form. Peptide text beside a SMILES is read from it. * marks the point of attachment. Propanoyl(3-(3-pyridyl)) = O=C(CCc1cccnc1)*; Arg(Me) = CNC(=N)NCCC[C@H](N)C(=O)O; d4Pal = N[C@H](Cc1ccncc1)C(=O)O; azaGly = NNC(=O)O

Legend:
[1] = system: human colonic carcinoma-derived cell line SW620; experiment: Tumor growth inhibition activity in tumor-bearing mice with SW620; format: in vivo; conditions: for tumor growth inhibition (tumor size) compared to the vehicle group: SW620 tumor-bearing BALB/cAnN-nu mice, s.c. osmotic pump
Protocol: The abscissa denotes the number of days after injection. The bar on the abscissa designates a dosing period. The ordinate denotes a tumor size (mm^3).
Evaluation of Tumor Growth Inhibition Activity
On the following day, human colonic carcinoma-derived cell line SW620 (ATCC) was dissolved in 20 mM phosphate buffered saline (pH 7.2)(PBS) containing 200 μL of 0.15M NaCl at a density of 2×10^6 cells. The resulting solution was subcutaneously injected into the left flank of the mice above. The day when the cells were injected was made Day 0. Tumor was measured with an electronic caliper every other or 2 other days during Days 4 to 13 from the cell administration, and tumor size was calculated by the following equation: […].

[2] = in vitro; conditions: female, Balb/c, mouse, serum
Protocol: Blood was drawn from Balb/c mice (female) of 8 weeks old, settled at 37° C. for 30 minutes and centrifuged at 13000 rpm for 10 minutes to give the serum as the supernatant. The serum thus obtained was frozen-stored at −80° C.
The stability test was performed by addition of 5 nmol of Compound (5 μL of aqueous solution) to 45 μL of serum and then settlement of the mixture at 37° C. The settlement was made at 3 points of time, including 2, 10 and 30 minutes. The sample after the settlement was boiled for 3 minutes and cooled on an ice bath. After 200 μL of acetonitrile/water (3/1) was added to the sample, the mixture was ultrasonicated for 5 minutes and then centrifuged at 5000 rpm for 1 minute. After 150 μL of the supernatant was diluted with 250 μL of distilled water, insoluble matters were removed by filtration through a filter having a pore size of 0.45 μm and 200 μL of the filtrate was applied on HPLC (220 nm) to determine the peak area of Compound. A ratio of the peak area to the area when Compound was treated for 0 minute under the same conditions was calculated as a mean value in 4 respective runs to determine the residual ratio. Next, by taking the calculated residual ratio on the ordinate and the time on the abscissa, a graph was prepared and approximated by an exponential function.
The preparative HPLC used was the LC-VP series manufactured by Shimadzu Corporation and Wakosil-II 5C18 HG (4.6 mm×100 mm) manufactured by Wako Pure Chemical Industries, Ltd. was used as the column. Eluant A (0.1% TFA-containing water) and eluant B (0.1% TFA-containing acetonitrile) were used as eluants. Analysis was performed by linear density gradient elution (25 minutes) at a flow rate of 1.0 ml/min. using eluants A/B: 100/0-0/50.

[3] = system: rats; experiment: Effect of metastin derivatives on blood glucose level and blood glucagon level; format: in vivo; conditions: for blood glucose level: i.v. 80 nmol/kg (FIG. 10); for blood glucagon level: i.v. 80 nmol/kg (FIG. 11)
Description: The value indicates (mean±SE) (n=5). The symbol * designates that the P-value is 0.05 or less, when compared to the saline group and the symbol ** designates that the P-value is 0.01 or less, when compared to the saline group.
In the figure, the symbols, open circle, closed circle and closed triangledesignate the blood glucagon level in the saline group and the group receiving 80 nmol/kg KiSS1-305 (Compound No. 305), the group receiving 80 nmol/kg KiSS1-322 (Compound No. 322), respectively. The value indicates (mean±SE) (n=5). The symbol * designates that the P-value is 0.05 or less, when compared to the saline group.
An operation was performed in free moving mature Wistar male rats (weighing […] at the time of operation) in a manner similar to TEST EXAMPLE 1 to collect blood. After the operation, the animal was maintained overnight. […] To prevent blood clotting, 3 μl of 300 KIU/ml aprotinin solution containing 3 mg/ml EDTA had previously been filled in the syringe. […] Blood was collected from the jugular vein by 300 μl each 2, 5, 15, 30, 45 and 60 minutes starting from the intravenous injection. The collected blood was centrifuged (13,000 rpm, 5 minutes) with a high speed refrigerated centrifuge (MR-150, Tomy Seiko Co., Ltd.) to recover the supernatant (plasma). Glucose level in blood was measured using Fuji Drychem 3500 (FUJI FILM) and glucagon level in blood was measured using a glucagon kit “Daiichi” (Daiichi Radioisotope Laboratories Ltd.), as in TEST EXAMPLE 1 or 2.

[4] = system: hOT7T175-expressed CHO cells; format: cell-based
Protocol: Assay for Cell Growth Inhibition Activity in hOT7T175-Expressed Cho Cells hOT7T175-Expressed CHO cells (hereinafter hOT7T175) were cultured in DMEM supplemented with 10% dialyzed FBS (hereinafter 10% dFBS/DMEM), which was used for the following assay. The hOT7T175 was suspended in 10% dFBS/DMEM at 10,000 cells/ml. The cells were plated on a 96 well plate at 100 μL each/well (1,000 cells/well), followed by culturing overnight at 37° C. in a 5% CO2 incubator. On the following day, the medium was removed and 90 μL of 10% dFBS/DMEM supplemented with 0.5% BSA (hereinafter, 0.5% BSA/10% dFBS/DMEM) was added. […] After 10 μL of Cell Counting Kit-8 solution (Dojin Chemical Laboratory) was added to each well, incubation was performed at 37° C. in a 5% CO2 incubator for 4 hours and absorbance was measured at 450 nm.

[5] = target: hOT7T175 (Homo sapiens, UniProt Q969F8, L364H); experiment: hOT7T175 receptor binding activity: binding inhibition of Cy-5-labeled metastin (40-54) on hOT7T175-expressed CHO cells; design: expressed in transfected cells; host or cells: CHO cells
Chain of hOT7T175 (Q969F8 whole entry L364H): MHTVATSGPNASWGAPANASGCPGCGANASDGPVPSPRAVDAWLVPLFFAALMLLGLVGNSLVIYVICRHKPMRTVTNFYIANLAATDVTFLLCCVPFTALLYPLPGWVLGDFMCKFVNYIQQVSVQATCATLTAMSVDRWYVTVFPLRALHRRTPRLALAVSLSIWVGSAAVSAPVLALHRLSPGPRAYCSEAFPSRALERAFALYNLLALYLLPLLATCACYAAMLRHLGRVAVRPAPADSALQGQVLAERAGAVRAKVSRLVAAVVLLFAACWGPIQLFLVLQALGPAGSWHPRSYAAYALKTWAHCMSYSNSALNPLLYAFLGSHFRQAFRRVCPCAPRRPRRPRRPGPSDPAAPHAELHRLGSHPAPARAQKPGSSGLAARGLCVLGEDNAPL

SMILES | tumor growth inhibition compared with the Metastin group ([1]; 24 nmol/day/mouse×14 days, Day 11) | tumor growth inhibition (tumor size) compared to the vehicle group ([1]; 2.4 nmol/day/mouse×14 days) | tumor growth inhibition (tumor size) compared to the vehicle group ([1]; 24 nmol/day/mouse×14 days) | half-life at 100 µM [2] | blood glucose level [3] | blood glucagon level [3] | IC50 [4] | IC50 [5] | effect of tumor growth inhibition relative to Metastin ([1]; SW620 tumor-bearing mice, in vivo) | IC50 ([4]; hOT7T175-expressed CHO cells, 3 days culture, Cell Counting Kit-8, read-out: IC50 (M), cell growth inhibition activity)
CNC(=N)NCCC[C@H](NC(=O)[C@H](CC(C)C)NC(=O)NNC(=O)[C@H](Cc1ccccc1)NC(=O)[C@H](CO)NC(=O)[C@H](CC(N)=O)NC(=O)CCc1cccnc1)C(=O)N[C@@H](Cc1ccccc1)C(N)=O [Compound No. 322, 3-Pyridylpropionyl-Asn-Ser-Phe-AzaGly-Leu-Arg(Me)-Phe-NH2] ({Propanoyl(3-(3-pyridyl))}-NSF[azaGly]L[Arg(Me)]F-NH2) | significant tumor growth inhibition activity even when compared with the Metastin group | significant tumor growth inhibition activity in a 1/10 dose (2.4 nmol/day/mouse×14 days) of Metastin from Days 6 to 8 | significant tumor growth inhibition activity from Days 6 to 11 | 1.57 h | increase in the blood glucose level | increase in the blood glucagon level | 7.19e-08 M | 54 nM |  | 
CNC(=N)NCCC[C@H](NC(=O)[C@H](CC(C)C)NC(=O)NNC(=O)[C@H](Cc1ccccc1)NC(=O)[C@H](CO)NC(=O)[C@H](CC(N)=O)NC(=O)[C@@H](Cc1ccncc1)NC(=O)[C@H](N)Cc1ccc(O)cc1)C(=O)N[C@@H](Cc1ccccc1)C(N)=O [Compound No. 305, D-Tyr-D-Pya(4)-Asn-Ser-Phe-AzaGly-Leu-Arg(Me)-Phe-NH2] (H-[dY][d4Pal]NSF[azaGly]L[Arg(Me)]F-NH2) |  | significant tumor growth inhibition activity from Days 5 to 11 | significant effect of tumor growth inhibition from Days 5 to 9 and on Day 11 | 1.11 h | increase in the blood glucose level | increase in the blood glucagon level |  |  | 10 times | 8.94e-09 M
